Test results published in paper PMC8330740, “Discovery of new 3-methylquinoxalines as potential anti-cancer agents and apoptosis inducers targeting VEGFR-2: design, synthesis, and in silico studies” (Journal of Enzyme Inhibition and Medicinal Chemistry, 2021).

Assays:
[1] = system: MCF-7 (human breast cancer cell line); assay: MTT cytotoxicity assay, MCF-7; assay type: cell-based; conditions: for IC50: Homo sapiens, MCF7, MTT assay, mean of at least three different experiments; for Cytotoxic activity against the two cell lines (in words): MCF-7 and HepG2 together
Procedure: (§1) In vitro cytotoxicity was carried out using MTT assay protocol[47]^,[65–67] as described in Supplementary data.

[2] = system: HepG2 (human liver carcinoma cell line); assay: MTT cytotoxicity assay, HepG2; assay type: cell-based; conditions: mean of at least three different experiments
Procedure: as §1

[3] = target: Human VEGFR-2 (Homo sapiens, UniProt P35968); assay: In vitro VEGFR-2 kinase assay (Human VEGFR-2 ELISA kit)
Chain of Human VEGFR-2 (P35968 20-1356): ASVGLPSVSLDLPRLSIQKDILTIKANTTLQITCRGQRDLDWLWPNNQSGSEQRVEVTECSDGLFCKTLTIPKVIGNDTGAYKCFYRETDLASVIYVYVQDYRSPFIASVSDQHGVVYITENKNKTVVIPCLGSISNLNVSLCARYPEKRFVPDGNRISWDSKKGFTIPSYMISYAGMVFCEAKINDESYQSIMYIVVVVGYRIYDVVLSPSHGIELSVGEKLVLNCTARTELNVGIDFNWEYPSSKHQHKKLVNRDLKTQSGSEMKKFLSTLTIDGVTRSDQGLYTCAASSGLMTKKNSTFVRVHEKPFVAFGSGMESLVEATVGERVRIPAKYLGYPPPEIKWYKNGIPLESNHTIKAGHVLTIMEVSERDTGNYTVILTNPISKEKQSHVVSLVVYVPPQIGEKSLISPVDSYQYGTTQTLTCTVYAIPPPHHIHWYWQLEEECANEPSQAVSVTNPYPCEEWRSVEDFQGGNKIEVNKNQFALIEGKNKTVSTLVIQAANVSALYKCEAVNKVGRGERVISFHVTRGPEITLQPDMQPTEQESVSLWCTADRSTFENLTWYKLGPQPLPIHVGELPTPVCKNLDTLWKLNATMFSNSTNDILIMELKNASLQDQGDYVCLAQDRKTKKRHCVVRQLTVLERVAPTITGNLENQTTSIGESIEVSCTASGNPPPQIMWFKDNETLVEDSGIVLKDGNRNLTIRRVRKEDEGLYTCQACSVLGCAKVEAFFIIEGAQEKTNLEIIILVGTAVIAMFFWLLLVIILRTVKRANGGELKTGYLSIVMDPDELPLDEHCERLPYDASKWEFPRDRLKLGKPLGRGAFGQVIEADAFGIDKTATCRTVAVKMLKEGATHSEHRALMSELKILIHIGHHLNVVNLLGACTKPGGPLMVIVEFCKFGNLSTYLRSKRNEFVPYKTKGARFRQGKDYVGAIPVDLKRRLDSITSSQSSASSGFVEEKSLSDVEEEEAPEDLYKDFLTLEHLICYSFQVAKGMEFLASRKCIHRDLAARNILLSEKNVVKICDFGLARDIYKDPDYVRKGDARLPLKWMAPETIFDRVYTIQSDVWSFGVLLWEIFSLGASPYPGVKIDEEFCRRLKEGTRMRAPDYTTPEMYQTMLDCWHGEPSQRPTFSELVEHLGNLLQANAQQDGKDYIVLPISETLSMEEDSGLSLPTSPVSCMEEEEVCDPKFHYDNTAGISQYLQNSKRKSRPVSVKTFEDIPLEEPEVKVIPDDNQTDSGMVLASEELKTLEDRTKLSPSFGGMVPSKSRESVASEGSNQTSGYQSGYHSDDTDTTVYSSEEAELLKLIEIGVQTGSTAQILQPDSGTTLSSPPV

[4] = system: HepG2 cells; assay: Cell cycle analysis (propidium iodide staining, flow cytometry); assay type: cell-based, human; conditions: HepG2, 2.1 µM, 24 h
Procedure: HepG2 cells were used as a control without treatment by compound 11e.
The effect of compound 11e on cell cycle distribution was performed using propidium iodide (PI) staining technique as described in Supplementary data[71–73].

[5] = system: HepG2 cells; assay: Apoptosis analysis (Annexin-V/propidium iodide staining); assay type: cell-based, human; conditions: HepG2, 2.1 µM, 24 h
Procedure: To quantify the apoptosis triggered by 11e, Annexin-V/propidium iodide (PI) staining assay was conducted. In such procedure, compound 11e at a concentration of 2.1 µM was applied on HepG2 cells. Then, the media were incubated for 24 h. […] In details, compound 11e induced apoptosis by 49.14% (early apoptosis = 48.87% & late apoptosis = 0.27%), compared to 9.71% in the control cells (early apoptosis = 9.58% & late apoptosis = 0.13%).
The effect of compound 11e on cell apoptosis was investigated as described in Supplementary data[74–76].

[6] = system: caspase-3; assay: Western blot, caspase-3 level in HepG2; assay type: cell-based, human; conditions: HepG2, 2.1 µM, 24 h; compared to control cells
Procedure: (§2) To investigate the effect of the synthesised compounds on caspase-3 and caspase-9 levels, the most promising member 11e was applied on the most sensitive cells (HepG2) at a concentration of 2.1 µM for 24 h.
(§3) Western blot technique was applied to assess the potential effect of compound 11e on the expression of caspase‐9, caspase‐3, BAX, and Bcl‐2 as reported in Supplementary data[77–79].

[7] = system: caspase-9; assay: Western blot, caspase-9 level in HepG2; assay type: cell-based, human; conditions: HepG2, 2.1 µM, 24 h; compared to control cells
Procedure: as §2, §3

[8] = system: BAX; assay: Western blot, BAX level in HepG2; assay type: cell-based, human; conditions: HepG2, 24 h
Procedure: (§4) Compound 11e as a promising member was investigated to evaluate its effect on BAX and Bcl-2 after 24 h of its application on HepG2 cells using Western blot technique.
as §3

[9] = system: Bcl-2; assay: Western blot, Bcl-2 level in HepG2; assay type: cell-based, human; conditions: HepG2, 24 h
Procedure: as §4, §3

[10] = system: primary rat hepatocytes; assay: In vitro cytotoxicity against normal cells; conditions: Hepatocyte, read-out: IC50 primary rat hepatocytes
[11] = mean ± SD of three experiments, listed as Compound 11e

| IC50 [3] | Compound | IC50 [1] | IC50 [2] | other results |
| --- | --- | --- | --- | --- |
| 0.0112 µM | CNC(=O)c1ccc(NC(=O)Cn2c(=O)c(C)nc3ccccc32)cc1 [Compound 11a, N-Methyl-4–(2-(3-methyl-2-oxoquinoxalin-1(2H)-yl)acetamido)benzamide] | 23.9 µM | 16.5 µM |  |
| 0.0053 µM | CCC(C)NC(=O)c1ccc(NC(=O)Cn2c(=O)c(C)nc3ccccc32)cc1 (stereo not drawn) [Compound 11b, N-(sec-Butyl)-4–(2-(3-methyl-2-oxoquinoxalin-1(2H)-yl)acetamido)benzamide] | 21.2 µM | 12.8 µM |  |
| 0.0127 µM | Cc1nc2ccccc2n(CC(=O)Nc2ccc(C(=O)NC3CCCC3)cc2)c1=O [Compound 11c, N-Cyclopentyl-4–(2-(3-methyl-2-oxoquinoxalin-1(2H)-yl)acetamido)benzamide] | 28.1 µM | 18.7 µM |  |
| 0.0374 µM | COc1ccccc1NC(=O)c1ccc(NC(=O)Cn2c(=O)c(C)nc3ccccc32)cc1 [Compound 11d, N-(2-Methoxyphenyl)-4–(2-(3-methyl-2-oxoquinoxalin-1(2H)-yl)acetamido)benzamide] | 52.3 µM | 34.1 µM | Cytotoxic activity against the two cell lines (in words) [1]: weak cytotoxic activity |
| 0.0026 µM | COc1cccc(NC(=O)c2ccc(NC(=O)Cn3c(=O)c(C)nc4ccccc43)cc2)c1 [Compound 11e, N-(3-Methoxyphenyl)-4–(2-(3-methyl-2-oxoquinoxalin-1(2H)-yl)acetamido)benzamide] | 2.7 µM | 2.1 µM | phase at which HepG2 cell growth is arrested [4]: G2/M phase; percentage of cells at the G2/M phase ([4]; control 18.24%): 46.62%; percentage of cells at the S phase ([4]; control 25.48): 31.80%; percentage of cells at G1 phase ([4]; control 55.03%): 20.34%; induced apoptosis (early + late) ([5]; control 9.71%): 49.14%; Apoptosis Early (Right Bottom) ([5]; mean ± SD of three experiments): 48.87%; Apoptosis Late (Right Top) ([5]; mean ± SD of three experiments): 0.27%; Necrosis (Left Top) ([5]; mean ± SD of three experiments): 0.20 ± 0.03; Apoptosis Early (Right Bottom) [5, 11]: 48.87 ± 3.69%; Apoptosis Late (Right Top) [5, 11]: 0.27 ± 0.04%; viability at 2.1 µM ([5]; Homo sapiens, mean ± SD of three experiments, read-out: Viable (Left Bottom)): 50.6 ± 3.66%; increase in the level of caspase-3 [6]: 2.34 fold; increase in the level of caspase-9 [7]: 2.34 fold; BAX level increase [8]: 3.14 fold; BAX/Bcl-2 ratio [8]: 9.17; Bcl-2 level decrease [9]: 3.13 fold; IC50 [10]: 15 µM |
| 0.0048 µM | COc1ccc(NC(=O)c2ccc(NC(=O)Cn3c(=O)c(C)nc4ccccc43)cc2)cc1 [Compound 11f, N-(4-Methoxyphenyl)-4–(2-(3-methyl-2-oxoquinoxalin-1(2H)-yl)acetamido)benzamide] | 12.4 µM | 9.6 µM |  |
| 0.0034 µM | CC(=O)c1ccc(NC(=O)c2ccc(NC(=O)Cn3c(=O)c(C)nc4ccccc43)cc2)cc1 [Compound 11g, N-(4-Acetylphenyl)-4–(2-(3-methyl-2-oxoquinoxalin-1(2H)-yl)acetamido)benzamide] | 6.7 µM | 3.8 µM |  |
| 0.0116 µM | Cc1nc2ccccc2n(CC(=O)Nc2ccc(C(=O)Nc3ccc(F)cc3)cc2)c1=O [Compound 11h, N-(4-Fluorophenyl)-4–(2-(3-methyl-2-oxoquinoxalin-1(2H)-yl)acetamido)benzamide] | 25.8 µM | 22.7 µM | Cytotoxic activity against the two cell lines (in words) [1]: weak cytotoxic activity |
| 0.0527 µM | Cc1nc2ccccc2n(CC(=O)Nc2ccc(C(=O)Nc3ccccn3)cc2)c1=O [Compound 11i, 4–(2-(3-Methyl-2-oxoquinoxalin-1(2H)-yl)acetamido)-N-(pyridin-2-yl)benzamide] | 69.7 µM | 51.8 µM | Cytotoxic activity against the two cell lines (in words) [1]: weak cytotoxic activity |
| 0.0134 µM | Cc1nc2ccccc2n(CC(=O)Nc2ccc(C(=O)Nc3nccs3)cc2)c1=O [Compound 11j, 4–(2-(3-Methyl-2-oxoquinoxalin-1(2H)-yl)acetamido)-N-(thiazol-2-yl)benzamide] | 32.8 µM | 27.8 µM | Cytotoxic activity against the two cell lines (in words) [1]: weak cytotoxic activity |
| 0.0327 µM | CNC(=O)c1ccc(NC(=O)CSc2nc3ccccc3nc2C)cc1 [Compound 12a, N-Methyl-4–(2-((3-methylquinoxalin-2-yl)thio)acetamido)benzamide] | 69.2 µM | 23.7 µM | Cytotoxic activity against the two cell lines (in words) [1]: weak cytotoxic activity |
| 0.0157 µM | CCC(C)NC(=O)c1ccc(NC(=O)CSc2nc3ccccc3nc2C)cc1 (stereo not drawn) [Compound 12b, N-(sec-Butyl)-4–(2-((3-methylquinoxalin-2-yl)thio)acetamido)benzamide] | 35.7 µM | 21.7 µM | Cytotoxic activity against the two cell lines (in words) [1]: weak cytotoxic activity |
| 0.0198 µM | Cc1nc2ccccc2nc1SCC(=O)Nc1ccc(C(=O)NC2CCCC2)cc1 [Compound 12c, N-Cyclopentyl-4–(2-((3-methylquinoxalin-2-yl)thio)acetamido)benzamide] | 31.3 µM | 18.7 µM |  |
| 0.0134 µM | COc1ccccc1NC(=O)c1ccc(NC(=O)CSc2nc3ccccc3nc2C)cc1 [Compound 12d, N-(2-Methoxyphenyl)-4–(2-((3-methylquinoxalin-2-yl)thio)acetamido) benzamide] | 23.5 µM | 17.6 µM |  |
| 0.0038 µM | COc1cccc(NC(=O)c2ccc(NC(=O)CSc3nc4ccccc4nc3C)cc2)c1 [Compound 12e, N-(3-Methoxyphenyl)-4–(2-((3-methylquinoxalin-2-yl)thio)acetamido) benzamide] | 5.3 µM | 4.8 µM | IC50 [10]: 16.7 µM |
| 0.0038 µM | COc1ccc(NC(=O)c2ccc(NC(=O)CSc3nc4ccccc4nc3C)cc2)cc1 [Compound 12f, N-(4-Methoxyphenyl)-4–(2-((3-methylquinoxalin-2-yl)thio)acetamido) benzamide] | 10.8 µM | 7.5 µM |  |
| 0.0054 µM | CC(=O)c1ccc(NC(=O)c2ccc(NC(=O)CSc3nc4ccccc4nc3C)cc2)cc1 [Compound 12g, N-(4-Acetylphenyl)-4–(2-((3-methylquinoxalin-2-yl)thio)acetamido)benzamide] | 8.7 µM | 6.1 µM |  |
| 0.0514 µM | Cc1nc2ccccc2nc1SCC(=O)Nc1ccc(C(=O)Nc2ccc(F)cc2)cc1 [Compound 12h, N-(4-Fluorophenyl)-4–(2-((3-methylquinoxalin-2-yl)thio)acetamido)benzamide] | 67.8 µM | 35.8 µM |  |
| 0.0241 µM | Cc1nc2ccccc2nc1SCC(=O)Nc1ccc(C(=O)Nc2ccccn2)cc1 [Compound 12i, 4–(2-((3-Methylquinoxalin-2-yl)thio)acetamido)-N-(pyridin-2-yl)benzamide] | 58.6 µM | 44.7 µM |  |
| 0.0378 µM | Cc1cccc(NC(=O)c2ccc(NC(=O)CSc3nc4ccccc4nc3C)cc2)c1 [Compound 12j, 4–(2-((3-Methylquinoxalin-2-yl)thio)acetamido)-N-(m-tolyl)benzamide] | 61.2 µM | 40.7 µM |  |
| 0.0029 µM | Cc1ccc(NC(=O)c2ccc(NC(=O)CSc3nc4ccccc4nc3C)cc2)cc1 [Compound 12k, 4–(2-((3-Methylquinoxalin-2-yl)thio)acetamido)-N-(p-tolyl)benzamide] | 9.8 µM | 6.7 µM |  |
|  | CNC(=O)c1cc(Oc2ccc(NC(=O)Nc3ccc(Cl)c(C(F)(F)F)c3)cc2)ccn1 [Sorafenib, reference compound] | 3.4 µM | 2.2 µM | IC50 [10]: 13.4 µM |
